The results in this text go back to patent US8778920B2, “3-cyano-quinoline derivatives with antiproliferative activity” (Janssen Pharmaceutica NV, priority 2004, dated 2014).

This assay concerns ovarian carcinoma cell line (SKOV3). Put plainly: Serum starved, EGF stimulated proliferation assay on ovarian carcinoma SKOV3 cells (MTT). The format is cell-based. Particulars: Homo sapiens, SK-OV-3, serum free, 72 hours EGF 100 ng/ml, b231 calls the values pIC50, read-out: SKOV3 cell (C3): IC50 (converted). How it is done: The ovarian carcinoma cell line (SKOV3) was used in an epidermal growth factor stimulated cell proliferation assay, to assess the inhibitory effect of the compounds on EGF in whole cells. In a first step the SKOV3 cells were incubated for 24 hours in the presence of 10% FCS serum. In the second step the cells were incubated with the compounds to be tested in a serum free condition (37° C. and 5% (v/v) CO2) and subsequently stimulated for 72 hours with EGF at a final concentration of 100 ng/ml. The effect of the compounds on the EGF stimulation was finally assessed in a standard MTT cell viability assay.

Counter-ions that a name gives are not always drawn.

For `COc1cc2ncc(C#N)c3c2cc1OCCCCCNCc1ccc(Br)cc1N3` [Compound 2, 4,6-ethanediylidenepyrido[4,3-b][6,1,12]benzoxadiazacyclopentadecine-1-carbonitrile, 17-bromo-8,9,10,11,12,13,14,19-octahydro-20-methoxy-, monohydrochloride], the IC50 is 158 nM.

In general, IC50 refers to the concentration that gives 50% inhibition.
